From patent US12692249B2, “WDR5 inhibitors and modulators” (Vanderbilt University, priority 2019, dated 2026) come the findings set out here.

The target of one assay is WDR5 (Homo sapiens, UniProt P61964). The assay is described as follows: TR-FRET competition binding assay, displacement of 10mer-Thr-FAM MLL peptide probe from His-tagged WDR5. As to conditions: WDR5-His tag (residues 24-334) 2 nM; 10mer-Thr-FAM 150 nM; 60 min, room temperature; read-out: Ki for Inhibition of WDR5 by TR-FRET assay. Here is the method: Time Resolved-Fluorescence Energy Transfer Competition Assay […] Excess 10mer-Thr-FAM probe was utilized with His-tagged WDR5 in conjunction with a commercial anti-His antibody containing a Terbium label. The LanthaScreenTM Elite Tb-anti-HIS Antibody from ThermoFisher Scientific was used for this purpose. […] The 10mer-Thr-FAM probe when bound to WDR5 will undergo a FRET interaction with the Tb-anti-HIS and emit at 520 nm. […] WDR[…] 10[…] used at 150 nM. […] A source plate is prepared using an Echo Liquid Handler, which distributes the compounds to the assay plate (white, flat-bottom; OptiPlate) in a 10-point, 5-fold dilution schemes with a top concentration of 5 μM, in a final volume of 20 μL. […] The final DMSO concentration in each well of the assay plate is 1% or lower. The plate is covered, shielded from light, and incubated for 60 minutes at room temperature with rocking. 10mer-Thr-FAM and Anti-His terbium antibody fluorescence is then measured on a Biotek Cytation 3 at excitation wavelength of 340 nm, and emission wavelengths of 495 nm and 520 nm. […] TR-FRET signal is plotted and IC50 and Ki values are calculated according to the formula of Wang Z. FEBS Lett (1996) 3, 245. Ki=[I]50/([L]50/Kd+[P]0/Kd+1) where [I]50 is the concentration of the free inhibitor at 50% inhibition, [L]50 is the concentration of the free labeled ligand at 50% inhibition, [P]0 is the concentration of the free protein at 0% inhibition, Kd represents the dissociation constant of the FITC-MLL or 10mer-Thr-FAM probe for WDR5. Total fluorescence is also measured, to rule out compounds that are inherently fluorescent or able to act as quenchers in the assay. TR-FRET Binding Assay
(In TR-FRET formats the signal depends on donor and acceptor labels being close together.)

The test system of assay [1] is MV4:11 human cancer cell lines. The assay is described as follows: Cellular viability / anti-proliferative assay, CellTiter-Glo, 5 day protocol. It is filed as cell-based. The conditions noted are these: Homo sapiens, MV4-11, 120 h, MV4:11 cells; 5 day incubation; CellTiter-Glo; mean of at least two replicates; read-out: GI50 on cellular proliferation of MV4:11 human cancer cell lines. In short, it runs like this:
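MV-4-11 cells in IMDM with 10% FBS, 200 cells/well, exposed 5 days to 22 two-fold dilutions from 30 μM, final DMSO 0.3%. Viability read by CellTiter-Glo luminescence; GI50 from sigmoidal dose-response fit, mean of at least two replicates.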
(ATP-based viability assays read luminescence as a measure of living cells.)

By Ki is commonly meant the equilibrium dissociation constant of an inhibitor or competing ligand from its target. Turning to `COc1cc(C)c2nccc(N3CCc4c(cc(Cn5ccnc5C)cc4-c4cn(C)nc4C(F)(F)F)C3=O)c2c1` [Example 7, 2-(6-Methoxy-8-methylquinolin-4-yl)-7-((2-methyl-1H-imidazol-1-yl)methyl)-5-(1-methyl-3-(trifluoromethyl)-1H-pyrazol-4-yl)-3,4-dihydroisoquinolin-1(2H)-one], the Ki at WDR5 amounted to 0.026 nM. Besides, the GI50 in assay [1] was 29 nM.

For the compound `COc1ccc2nc(C)cc(N3CCc4c(cc(Cn5ccnc5C)cc4-c4cn(C)nc4C(F)(F)F)C3=O)c2c1` [Example 8, 2-(6-Methoxy-2-methylquinolin-4-yl)-7-((2-methyl-1H-imidazol-1-yl)methyl)-5-(1-methyl-3-(trifluoromethyl)-1H-pyrazol-4-yl)-3,4-dihydroisoquinolin-1(2H)-one], the Ki on WDR5 worked out at 0.026 nM. For the same compound, the GI50 in assay [1] is under 20 nM.

For `COc1ccc2ncc(Cl)c(N3CCc4c(cc(Cn5ccnc5C)cc4-c4cn(C)nc4C(F)(F)F)C3=O)c2c1` [Example 9, 2-(3-Chloro-6-methoxyquinolin-4-yl)-7-((2-methyl-1H-imidazol-1-yl)methyl)-5-(1-methyl-3-(trifluoromethyl)-1H-pyrazol-4-yl)-3,4-dihydroisoquinolin-1(2H)-one], on WDR5, the Ki is 0.048 nM. Moreover, the GI50 in assay [1] turned out to be 43 nM.

On to `Cc1ccc2cncc(N3CCc4c(cc(Cn5ccnc5C)cc4-c4cn(C)nc4C(F)(F)F)C3=O)c2c1` [Example 10, 6′-Methyl-7-((2-methyl-1H-imidazol-1-yl)methyl)-5-(1-methyl-3-(trifluoromethyl)-1H-pyrazol-4-yl)-3,4-dihydro-1H-[2,4′-biisoquinolin]-1-one], for which, at WDR5, the Ki is 0.029 nM. For the same compound, the GI50 in assay [1] was under 20 nM.

Turning to `COc1ccc(N2CCc3c(cc(Cn4ccnc4C)cc3-c3cn(C)nc3C(F)(F)F)C2=O)c2cc(C)cnc12` [Example 11, 2-(8-Methoxy-3-methylquinolin-5-yl)-7-((2-methyl-1H-imidazol-1-yl)methyl)-5-(1-methyl-3-(trifluoromethyl)-1H-pyrazol-4-yl)-3,4-dihydroisoquinolin-1(2H)-one], the Ki on WDR5 is 0.035 nM. Moreover, the GI50 in assay [1] is 3890 nM.

Regarding `COc1cnc2cccc(N3CCc4c(cc(Cn5ccnc5)cc4-c4cn(C)nc4C(F)(F)F)C3=O)c2c1` [Example 12, 7-((1H-Imidazol-1-yl)methyl)-2-(3-methoxyquinolin-5-yl)-5-(1-methyl-3-(trifluoromethyl)-1H-pyrazol-4-yl)-3,4-dihydroisoquinolin-1(2H)-one], the Ki on WDR5 was under 0.02 nM. In addition, in assay [1], the GI50 came to 34 nM.

On to `COc1ccc2nccc(N3CCc4c(cc(Cn5ccnc5)cc4-c4cn(C)nc4C(F)(F)F)C3=O)c2c1` [Example 13, 7-((1H-Imidazol-1-yl)methyl)-2-(6-methoxyquinolin-4-yl)-5-(1-methyl-3-(trifluoromethyl)-1H-pyrazol-4-yl)-3,4-dihydroisoquinolin-1(2H)-one], for which the Ki on WDR5 is under 0.02 nM. In addition, the GI50 in assay [1] amounted to 45 nM.

`Cc1ccc2nccc(N3CCc4c(cc(Cn5ccnc5)cc4-c4cn(C)nc4C(F)(F)F)C3=O)c2c1` [Example 15, 7-((1H-Imidazol-1-yl)methyl)-5-(1-methyl-3-(trifluoromethyl)-1H-pyrazol-4-yl)-2-(6-methylquinolin-4-yl)-3,4-dihydroisoquinolin-1(2H)-one]: the Ki at WDR5 was 0.026 nM. Moreover, in assay [1], the GI50 worked out at 64 nM.

As to `Cc1ccc2cncc(N3CCc4c(cc(Cn5ccnc5)cc4-c4cn(C)nc4C(F)(F)F)C3=O)c2c1` [Example 16, 7-((1H-Imidazol-1-yl)methyl)-6′-methyl-5-(1-methyl-3-(trifluoromethyl)-1H-pyrazol-4-yl)-3,4-dihydro-1-[2,4′-biisoquinolin]-1-one], the Ki on WDR5 turned out to be 0.028 nM. The GI50 in assay [1] was 42 nM.

For the compound `COc1cc(OC)c2nccc(N3CCc4c(cc(Cn5ccnc5)cc4-c4cn(C)nc4C(F)(F)F)C3=O)c2c1` [Example 17, 7-((1H-Imidazol-1-yl)methyl)-2-(6,8-dimethoxyquinolin-4-yl)-5-(1-methyl-3-(trifluoromethyl)-1H-pyrazol-4-yl)-3,4-dihydroisoquinolin-1(2H)-one], at WDR5, the Ki came to 0.025 nM. Moreover, in assay [1], the GI50 was under 20 nM.

In the case of `COc1cc(OC)c2nc(C)cc(N3CCc4c(cc(Cn5ccnc5)cc4-c4cn(C)nc4C(F)(F)F)C3=O)c2c1` [Example 18, 7-((1H-Imidazol-1-yl)methyl)-2-(6,8-dimethoxy-2-methylquinolin-4-yl)-5-(1-methyl-3-(trifluoromethyl)-1H-pyrazol-4-yl)-3,4-dihydroisoquinolin-1(2H)-one], the Ki at WDR5 is under 0.02 nM. The GI50 in assay [1] was under 20 nM.

Take `COc1cc(C)cc2c(N3CCc4c(cc(Cn5ccnc5)cc4-c4cn(C)nc4C(F)(F)F)C3=O)ccnc12` [Example 19, 7-((1H-Imidazol-1-yl)methyl)-2-(8-methoxy-6-methylquinolin-4-yl)-5-(1-methyl-3-(trifluoromethyl)-1H-pyrazol-4-yl)-3,4-dihydroisoquinolin-1(2H)-one]: on WDR5, the Ki amounted to 0.02 nM. For the same compound, in assay [1], the GI50 was 26 nM.

Take `CCc1cc(OC)c2nccc(N3CCc4c(cc(Cn5ccnc5)cc4-c4cn(C)nc4C(F)(F)F)C3=O)c2c1` [Example 20, 7-((1H-Imidazol-1-yl)methyl)-2-(6-ethyl-8-methoxyquinolin-4-yl)-5-(1-methyl-3-(trifluoromethyl)-1H-pyrazol-4-yl)-3,4-dihydroisoquinolin-1(2H)-one]: the Ki at WDR5 is under 0.02 nM. For the same compound, the GI50 in assay [1] was under 20 nM.

As to `COc1ccc2c(Cl)ncc(N3CCc4c(cc(Cn5ccnc5)cc4-c4cn(C)nc4C(F)(F)F)C3=O)c2c1` [Example 21, 7-((1H-Imidazol-1-yl)methyl)-1′-chloro-6′-methoxy-5-(1-methyl-3-(trifluoromethyl)-1H-pyrazol-4-yl)-3,4-dihydro-1H-[2,4′-biisoquinolin]-1-one], the Ki at WDR5 was under 0.02 nM. In addition, the GI50 in assay [1] was determined as 23 nM.

In the case of `COc1ccc2c(OC)ncc(N3CCc4c(cc(Cn5ccnc5)cc4-c4cn(C)nc4C(F)(F)F)C3=O)c2c1` [Example 22, 7-((1H-imidazol-1-yl)methyl)-1′,6′-dimethoxy-5-(1-methyl-3-(trifluoromethyl)-1H-pyrazol-4-yl)-3,4-dihydro-1H-[2,4′-biisoquinolin]-one], the Ki on WDR5 came to 0.029 nM. Besides, in assay [1], the GI50 worked out at 111 nM.

Turning to `COc1ccc(N2CCc3c(cc(Cn4ccnc4)cc3-c3cn(C)nc3C(F)(F)F)C2=O)c2cc(C)cnc12` [Example 23, 7-((1H-Imidazol-1-yl)methyl)-2-(8-methoxy-3-methylquinolin-5-yl)-5-(1-methyl-3-(trifluoromethyl)-1H-pyrazol-4-yl)-3,4-dihydroisoquinolin-1(2H)-one], the Ki at WDR5 was under 0.02 nM. The GI50 in assay [1] was determined as 210 nM.

Turning to `Cc1cc(Cl)c2cncc(N3CCc4c(cc(Cn5ccnc5)cc4-c4cn(C)nc4C(F)(F)F)C3=O)c2c1` [Example 24, 7-((1H-Imidazol-1-yl)methyl)-8′-chloro-6′-methyl-5-(1-methyl-3-(trifluoromethyl)-1H-pyrazol-4-yl)-3,4-dihydro-1H-[2,4′-biisoquinolin]-1-one], the Ki at WDR5 was found to be 0.026 nM. Moreover, in assay [1], the GI50 amounted to 92 nM.

For `COc1ccc2ncnc(N3CCc4c(cc(Cn5ccnc5)cc4-c4cn(C)nc4C(F)(F)F)C3=O)c2c1` [Example 25, 7-((1H-Imidazol-1-yl)methyl)-2-(6-methoxyquinazolin-4-yl)-5-(1-methyl-3-(trifluoromethyl)-1H-pyrazol-4-yl)-3,4-dihydroisoquinolin-1(2)-one], the Ki on WDR5 was determined as 0.061 nM. Moreover, the GI50 in assay [1] stood at 70 nM.

For the compound `Cc1cc2c(N3CCc4c(cc(Cn5ccnc5)cc4-c4cn(C)nc4C(F)(F)F)C3=O)cccc2n1C` [Example 26, 7-((1H-Imidazol-1-yl)methyl)-2-(1,2-dimethyl-1H-indol-4-yl)-5-(1-methyl-3-(trifluoromethyl)-1H-pyrazol-4-yl)-3,4-dihydroisoquinolin-1(2H)-one], at WDR5, the Ki was found to be 0.087 nM. The GI50 in assay [1] worked out at 369 nM.

As for `Cc1nc2cccc(N3CCc4c(cc(Cn5ccnc5)cc4-c4cn(C)nc4C(F)(F)F)C3=O)c2o1` [Example 27, 7-((1H-Imidazol-1-yl)methyl)-5-(1-methyl-3-(trifluoromethyl)-1H-pyrazol-4-yl)-2-(2-methylbenzo[d]oxazol-7-yl)-3,4-dihydroisoquinolin-1(2H)-one], the Ki on WDR5 was 4.6 nM. Also, the GI50 in assay [1] is over 30000 nM.
